# Reference: PubChem BioAssay (NCI)
#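 Protocol summary: plate cells (96-well), add compound at 5 concentrations, incubate 48 h, interpolate endpoints linearly. Definition used: TGI = concentration required for complete inhibition of growth.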
# Assays:
# Assay in all cases: NCI tumour cell line growth inhibition, 48 h
# MOLT-4 leukemia = tested on: MOLT-4 leukemia
# DU-145 prostate = tested on: DU-145 prostate
# UO-31 renal = tested on: UO-31 renal
# HL-60(TB) leukemia = tested on: HL-60(TB) leukemia
# OVCAR-4 ovarian = tested on: OVCAR-4 ovarian
# IGROV1 ovarian = tested on: IGROV1 ovarian
# T-47D breast = tested on: T-47D breast
# MALME-3M melanoma = tested on: MALME-3M melanoma
# SF-539 CNS = tested on: SF-539 CNS
# KM12 colon = tested on: KM12 colon
# RPMI-8226 leukemia = tested on: RPMI-8226 leukemia
# SW-620 colon = tested on: SW-620 colon
# BT-549 breast = tested on: BT-549 breast
# M14 melanoma = tested on: M14 melanoma
# SNB-19 CNS = tested on: SNB-19 CNS
# U251 CNS = tested on: U251 CNS
# RXF 393 renal = tested on: RXF 393 renal
# SF-295 CNS = tested on: SF-295 CNS
# HS 578T breast = tested on: HS 578T breast
# NCI-H460 lung = tested on: NCI-H460 lung
# HOP-92 NSCLC = tested on: HOP-92 NSCLC
# EKVX NSCLC = tested on: EKVX NSCLC
# NCI-H226 lung = tested on: NCI-H226 lung
# SK-OV-3 ovarian = tested on: SK-OV-3 ovarian
# HOP-62 NSCLC = tested on: HOP-62 NSCLC
# HCT-15 colon = tested on: HCT-15 colon
# COLO 205 colon = tested on: COLO 205 colon
# NCI-H522 lung = tested on: NCI-H522 lung
# SF-268 CNS = tested on: SF-268 CNS
# LOX IMVI melanoma = tested on: LOX IMVI melanoma
# OVCAR-3 ovarian = tested on: OVCAR-3 ovarian
# SN12C renal = tested on: SN12C renal
# SK-MEL-5 melanoma = tested on: SK-MEL-5 melanoma
# NCI/ADR-RES ovarian = tested on: NCI/ADR-RES ovarian
# SK-MEL-2 melanoma = tested on: SK-MEL-2 melanoma
# MDA-MB-231 breast = tested on: MDA-MB-231 breast
# CAKI-1 renal = tested on: CAKI-1 renal
# OVCAR-8 ovarian = tested on: OVCAR-8 ovarian
# MCF7 breast = tested on: MCF7 breast
# TK-10 renal = tested on: TK-10 renal
# MDA-MB-435 = tested on: MDA-MB-435
# HCC-2998 colon = tested on: HCC-2998 colon
# A549 NSCLC = tested on: A549 NSCLC
# NCI-H23 lung = tested on: NCI-H23 lung
# MDA-N = tested on: MDA-N
# UACC-62 melanoma = tested on: UACC-62 melanoma
# ACHN renal = tested on: ACHN renal
# PC-3 prostate = tested on: PC-3 prostate
# CCRF-CEM leukemia = tested on: CCRF-CEM leukemia
# HCT-116 colon = tested on: HCT-116 colon
# A498 renal = tested on: A498 renal
# OVCAR-5 ovarian = tested on: OVCAR-5 ovarian
# SK-MEL-28 melanoma = tested on: SK-MEL-28 melanoma
# HT29 colon = tested on: HT29 colon
# K-562 leukemia = tested on: K-562 leukemia
# UACC-257 melanoma = tested on: UACC-257 melanoma
# 786-0 renal = tested on: 786-0 renal
# SR leukemia = tested on: SR leukemia
# SNB-75 CNS = tested on: SNB-75 CNS
smiles,measurement,setting,value
COC(=O)c1sc2c(c1C(=O)OC)C(=NC(C)(C)C)SC2=NC(C)(C)C,TGI,MOLT-4 leukemia,31.8 µM
same,TGI,DU-145 prostate,30.5 µM
same,TGI,UO-31 renal,2.43 µM
same,TGI,HL-60(TB) leukemia,28.6 µM
same,TGI,OVCAR-4 ovarian,44 µM
same,TGI,IGROV1 ovarian,36.2 µM
same,TGI,T-47D breast,31.4 µM
same,TGI,MALME-3M melanoma,37.8 µM
same,TGI,SF-539 CNS,34.1 µM
same,TGI,KM12 colon,33.8 µM
same,TGI,RPMI-8226 leukemia,41.4 µM
same,TGI,SW-620 colon,35.4 µM
same,TGI,BT-549 breast,35.4 µM
same,TGI,M14 melanoma,32.2 µM
same,TGI,SNB-19 CNS,35.8 µM
same,TGI,U251 CNS,32.3 µM
same,TGI,RXF 393 renal,19.3 µM
same,TGI,SF-295 CNS,36.6 µM
same,TGI,HS 578T breast,57.5 µM
same,TGI,NCI-H460 lung,34.9 µM
same,TGI,HOP-92 NSCLC,35.4 µM
same,TGI,EKVX NSCLC,34.7 µM
same,TGI,NCI-H226 lung,34.9 µM
same,TGI,SK-OV-3 ovarian,55.7 µM
same,TGI,HOP-62 NSCLC,39 µM
same,TGI,HCT-15 colon,34.3 µM
same,TGI,COLO 205 colon,34 µM
same,TGI,NCI-H522 lung,37.5 µM
same,TGI,SF-268 CNS,36 µM
same,TGI,LOX IMVI melanoma,38.6 µM
same,TGI,OVCAR-3 ovarian,36.9 µM
same,TGI,SN12C renal,34.5 µM
same,TGI,SK-MEL-5 melanoma,29.5 µM
same,TGI,NCI/ADR-RES ovarian,42.7 µM
same,TGI,SK-MEL-2 melanoma,33.1 µM
same,TGI,MDA-MB-231 breast,37.3 µM
same,TGI,CAKI-1 renal,32.6 µM
same,TGI,OVCAR-8 ovarian,42.3 µM
same,TGI,MCF7 breast,33.1 µM
same,TGI,TK-10 renal,33.2 µM
same,TGI,MDA-MB-435,34.6 µM
same,TGI,HCC-2998 colon,28.3 µM
same,TGI,A549 NSCLC,41.8 µM
same,TGI,NCI-H23 lung,34.5 µM
same,TGI,MDA-N,34 µM
same,TGI,UACC-62 melanoma,33.2 µM
same,TGI,ACHN renal,33.1 µM
same,TGI,PC-3 prostate,37 µM
same,TGI,CCRF-CEM leukemia,33.5 µM
same,TGI,HCT-116 colon,30.5 µM
same,TGI,A498 renal,32.5 µM
same,TGI,OVCAR-5 ovarian,37.2 µM
same,TGI,SK-MEL-28 melanoma,32 µM
same,TGI,HT29 colon,37.6 µM
same,TGI,K-562 leukemia,43.3 µM
same,TGI,UACC-257 melanoma,32.6 µM
same,TGI,786-0 renal,30.4 µM
same,TGI,SR leukemia,33.8 µM
CSc1ncc2c(C#N)c3[nH]c4ccccc4n3c(=O)c2n1,TGI,MOLT-4 leukemia,24.6 µM
same,TGI,DU-145 prostate,> 100 µM
same,TGI,UO-31 renal,> 100 µM
same,TGI,HL-60(TB) leukemia,25.1 µM
same,TGI,OVCAR-4 ovarian,> 100 µM
same,TGI,IGROV1 ovarian,> 100 µM
same,TGI,T-47D breast,> 100 µM
same,TGI,SF-539 CNS,> 100 µM
same,TGI,KM12 colon,> 100 µM
same,TGI,RPMI-8226 leukemia,12.3 µM
same,TGI,SW-620 colon,> 100 µM
same,TGI,BT-549 breast,> 100 µM
same,TGI,M14 melanoma,> 100 µM
same,TGI,SNB-19 CNS,> 100 µM
same,TGI,U251 CNS,> 100 µM
same,TGI,RXF 393 renal,95.5 µM
same,TGI,SF-295 CNS,> 100 µM
same,TGI,HS 578T breast,> 100 µM
same,TGI,NCI-H460 lung,87.8 µM
same,TGI,HOP-92 NSCLC,> 100 µM
same,TGI,EKVX NSCLC,> 100 µM
same,TGI,NCI-H226 lung,> 100 µM
same,TGI,SK-OV-3 ovarian,> 100 µM
same,TGI,HOP-62 NSCLC,> 100 µM
same,TGI,HCT-15 colon,76.4 µM
same,TGI,COLO 205 colon,35.1 µM
same,TGI,NCI-H522 lung,> 100 µM
same,TGI,SF-268 CNS,> 100 µM
same,TGI,LOX IMVI melanoma,> 100 µM
same,TGI,OVCAR-3 ovarian,45.2 µM
same,TGI,SN12C renal,> 100 µM
same,TGI,SK-MEL-5 melanoma,25.2 µM
same,TGI,NCI/ADR-RES ovarian,99.3 µM
same,TGI,SK-MEL-2 melanoma,33 µM
same,TGI,MDA-MB-231 breast,> 100 µM
same,TGI,CAKI-1 renal,78.4 µM
same,TGI,OVCAR-8 ovarian,98.8 µM
same,TGI,MCF7 breast,> 100 µM
same,TGI,TK-10 renal,> 100 µM
same,TGI,MDA-MB-435,67 µM
same,TGI,HCC-2998 colon,42.7 µM
same,TGI,NCI-H23 lung,> 100 µM
same,TGI,MDA-N,> 100 µM
same,TGI,UACC-62 melanoma,21.2 µM
same,TGI,ACHN renal,> 100 µM
same,TGI,PC-3 prostate,48.7 µM
same,TGI,CCRF-CEM leukemia,27.8 µM
same,TGI,SNB-75 CNS,> 100 µM
same,TGI,HCT-116 colon,57.5 µM
same,TGI,A498 renal,52.7 µM
same,TGI,OVCAR-5 ovarian,> 100 µM
same,TGI,K-562 leukemia,46 µM
same,TGI,UACC-257 melanoma,> 100 µM
same,TGI,786-0 renal,> 100 µM
same,TGI,SR leukemia,34.5 µM
